Common to all, as to type: cell-based
One experiment deals with T1, Gal-4 hPPARα (Homo sapiens, UniProt Q07869).
T1 construct: Plasmids pGal4-hPPARα, pGal4-hPPARγ, pGal4-hPPARδ and pG5-TK-pGL3 were constructed as previously described by Staels, Bart, et al., Nature 1998 Jun; 25
T1 sequence (Q07869 200-468 limits assumed): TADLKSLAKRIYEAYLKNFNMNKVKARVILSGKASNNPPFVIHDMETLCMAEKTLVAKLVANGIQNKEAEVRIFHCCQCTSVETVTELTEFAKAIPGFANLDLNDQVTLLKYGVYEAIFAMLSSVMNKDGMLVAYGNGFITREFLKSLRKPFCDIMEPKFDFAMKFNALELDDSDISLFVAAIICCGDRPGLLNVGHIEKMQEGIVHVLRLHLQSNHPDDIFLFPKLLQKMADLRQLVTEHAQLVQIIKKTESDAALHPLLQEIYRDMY
The experiment can be described thus: Gal4-hPPARα transient transfection reporter assay in Cos cells. Particulars: luciferase reporter, 24 hours with compound, scale 1-5, read-out: Gal-4 hPPAR α EC50 (scaled number). How it is done:
(§1) Construction of recombinant plasmids. Plasmids pGal4-hPPARα, pGal4-hPPARγ, pGal4-hPPARδ and pG5-TK-pGL3 were constructed as previously described by Staels, Bart, et al., Nature 1998 Jun. 25; 393 (6687): 790-793, by Staels (Institut Pasteur de Lille, FR).
(§2) Transient transfection assays. Cos cells were seeded in 60-mm dishes at a density of 5.5×10^5 cells/dish in Dulbecco's modified Eagle's medium (DMEM) supplemented with 10% fetal calf serum (FCS) and incubated at 37° C. for 24 hours before transfection. Cells were transfected in Opti-MEM (Gibco; Invitrogen, Carlsbad, Calif.) without FCS for 3 hours at 37° C., using polyethylenimine, with reporter and expression plasmids. The plasmid pBluescript (Stratagene, La Jolla, Calif.) was used as carrier DNA to set the final amount of DNA to 5.5 μg/dish. The pCMV-b-galactosidase expression plasmid was cotransfected as a control for transfection efficiency. Transfection was stopped by the addition of DMEM supplemented with 10% FCS, and cells were then incubated at 37° C. After 16 hours, cells were trypsinized and seeded in 96-well plates at the density of 2×10^4 cells/well and incubated for 6 hours in 10% FCS-containing DMEM. Cells were then incubated for 24 hours in DMEM containing 0.2% FCS and increasing concentrations of the compound tested or vehicle (DMSO). At the end of the experiment, cells were washed once with ice-cold PBS, lysed and the luciferase and b-galactosidase assays were performed in a luminometer and spectrophotomer. Transfection efficiencies were normalized with the b-galactosidase activity assay. Half-maximal effective concentration (EC50) was estimated using Prism software (GraphPad). All transfection experiments were performed at least three times.
(§3) In the following tables, proprietary compound EC50 values for hPPAR α, β, δ and γ are shown. The EC50 value is the concentration of a drug that induces a response halfway between the baseline and maximum, and is commonly used as a measure of drug potency. EC50 values are reported on a scale of 1 through 5, wherein the value scale is defined for each receptor as follows: […]
On the technique in general: Reporter assays use an easily measured gene product as a stand-in for the process of interest.

A further experiment concerns the target T2, Gal-4 hPPARγ (Homo sapiens, UniProt P37231).
T2 construct: Plasmids pGal4-hPPARα, pGal4-hPPARγ, pGal4-hPPARδ and pG5-TK-pGL3 were constructed as previously described by Staels, Bart, et al., Nature 1998 Jun; 25
T2 sequence (P37231 238-505 limits assumed): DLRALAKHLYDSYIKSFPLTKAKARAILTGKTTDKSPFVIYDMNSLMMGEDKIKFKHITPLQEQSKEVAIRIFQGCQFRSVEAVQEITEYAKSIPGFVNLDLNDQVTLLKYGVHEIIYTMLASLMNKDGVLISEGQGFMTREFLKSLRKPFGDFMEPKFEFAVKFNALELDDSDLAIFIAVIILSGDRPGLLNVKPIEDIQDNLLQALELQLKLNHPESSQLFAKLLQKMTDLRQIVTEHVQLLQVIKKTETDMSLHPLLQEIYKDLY
The experiment can be described thus: Gal4-hPPARγ transient transfection reporter assay in Cos cells. Particulars: luciferase reporter, 24 hours with compound, scale 1-5, read-out: Gal-4 hPPAR γ EC50 (scaled number). The protocol: as §1, §2, §3

A further experiment deals with T3, Gal-4 hPPARβ/δ (Homo sapiens, UniProt Q03181).
T3 construct: Plasmids pGal4-hPPARα, pGal4-hPPARγ, pGal4-hPPARδ and pG5-TK-pGL3 were constructed as previously described by Staels, Bart, et al., Nature 1998 Jun; 25
T3 sequence (Q03181 171-441 limits assumed): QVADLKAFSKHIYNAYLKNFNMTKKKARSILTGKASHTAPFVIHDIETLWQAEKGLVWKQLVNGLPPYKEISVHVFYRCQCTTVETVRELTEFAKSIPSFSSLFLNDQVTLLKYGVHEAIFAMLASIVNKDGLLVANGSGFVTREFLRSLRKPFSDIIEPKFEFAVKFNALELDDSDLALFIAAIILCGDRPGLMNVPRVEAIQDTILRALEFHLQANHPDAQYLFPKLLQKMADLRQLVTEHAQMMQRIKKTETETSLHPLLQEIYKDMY
The experiment can be described thus: Gal4-hPPARδ transient transfection reporter assay in Cos cells. Particulars: luciferase reporter, 24 hours with compound, scale 1-5, read-out: Gal-4 hPPAR β/δ EC50 (scaled number). How it is done:
as §1, §2, §3

The structures appear in SMILES notation. Bounds are passed on as bounds.

On to `C[C@@H](OC(=O)c1ccc(SC(C)(C)C(=O)O)cc1)c1cn(Cc2ccc(OC(F)(F)F)cc2)nn1` [Compound 137, 4-(1-Carboxy-1-methyl-ethylsulfanyl)-benzoic acid (R)-1-[1-(4-trifluoromethoxy-benzyl)-1H-1,2,3-triazol-4-yl]-ethyl ester], for which the EC50 at Gal-4 hPPARα is 0.051 to 0.2 µM; at Gal-4 hPPARγ it was greater than 1 µM; at Gal-4 hPPARβ/δ it was greater than 1 µM.

Take `C[C@H](Cc1cn(Cc2ccc(C(C)(C)C)cc2)nn1)OC(=O)c1ccc(SC(C)(C)C(=O)O)cc1` [Compound 138, 4-(1-Carboxy-1-methyl-ethylsulfanyl)-benzoic acid (R)-2-[1-(4-tert-butyl-benzyl)-1H-1,2,3-triazol-4-yl]-1-methyl-ethyl ester]: the EC50 was 0.001 to 0.05 µM at Gal-4 hPPARα, greater than 1 µM on Gal-4 hPPARγ and greater than 1 µM at Gal-4 hPPARβ/δ.

As to `C[C@@H](OC(=O)c1ccc(SC(C)(C)C(=O)O)cc1)c1cn(Cc2cccc(C(F)(F)F)c2)nn1` [Compound 139, 4-(1-Carboxy-1-methyl-ethylsulfanyl)-benzoic acid (R)-1-[1-(3-trifluoromethyl-benzyl)-1H-1,2,3-triazol-4-yl]-ethyl ester], the figures for the EC50 at Gal-4 hPPARα, on Gal-4 hPPARγ and on Gal-4 hPPARβ/δ were 0.001 to 0.05 µM, greater than 1 µM and greater than 1 µM, respectively.

Regarding `C[C@@H](OC(=O)c1ccc(SC(C)(C)C(=O)O)cc1)c1cn(Cc2cc(C(F)(F)F)cc(C(F)(F)F)c2)nn1` [Compound 140, 4-(1-Carboxy-1-methyl-ethylsulfanyl)-benzoic acid (R)-1-[1-(3,5-bis-trifluoromethyl-benzyl)-1H-1,2,3-triazol-4-yl]-ethyl ester], the EC50 is 0.001 to 0.05 µM at Gal-4 hPPARα, greater than 1 µM at Gal-4 hPPARγ and greater than 1 µM on Gal-4 hPPARβ/δ.

As for `CC(C)(Sc1ccc(C(=O)OCCc2cn(Cc3ccc(C(C)(C)C)cc3)nn2)cc1)C(=O)O` [Compound 144, 4-(1-Carboxy-1-methyl-ethylsulfanyl)-benzoic acid 2-[1-(4-tert-butyl-benzyl)-1H-1,2,3-triazol-4-yl]-ethyl ester], the EC50 on Gal-4 hPPARα was 0.051 to 0.2 µM; on Gal-4 hPPARγ, greater than 1 µM; on Gal-4 hPPARβ/δ it was greater than 1 µM.

Regarding `Cc1ccc(Cn2cc(CCOC(=O)c3ccc(SC(C)(C)C(=O)O)cc3)nn2)cc1` [Compound 145, 4-(1-Carboxy-1-methyl-ethylsulfanyl)-benzoic acid 2-[1-(4-methyl-benzyl)-1H-1,2,3-triazol-4-yl]-ethyl ester], the results for the EC50 at Gal-4 hPPARα, on Gal-4 hPPARγ and at Gal-4 hPPARβ/δ were 0.201 to 0.999 µM, greater than 1 µM and greater than 1 µM, respectively.

Take `CCCn1c(COC(=O)c2ccc(SC(C)(C)C(=O)O)cc2)nn(Cc2ccc(-c3ccccc3)cc2)c1=O` [Compound 163, 2-(4-(((1-(biphenyl-4-ylmethyl)-5-oxo-4-propyl-4,5-dihydro-1H-1,2,4-triazol-3-yl)methoxy)carbonyl)phenylthio)-2-methylpropanoic acid]: the EC50 is 0.001 to 0.05 µM at Gal-4 hPPARα, greater than 1 µM on Gal-4 hPPARγ and greater than 1 µM at Gal-4 hPPARβ/δ.

Consider `CCCn1c(COC(=O)c2ccc(SC(C)(C)C(=O)O)cc2)nn(Cc2ccc(Br)cc2)c1=O` [Compound 164, 2-(4-(((1-(4-bromobenzyl)-5-oxo-4-propyl-4,5-dihydro-1H-1,2,4-triazol-3-yl)methoxy)carbonyl)phenylthio)-2-methylpropanoic acid], for which the EC50 at Gal-4 hPPARα is 0.001 to 0.05 µM; at Gal-4 hPPARγ it was greater than 1 µM; at Gal-4 hPPARβ/δ, greater than 1 µM.

On to `CCCn1c(COC(=O)c2ccc(SC(C)(C)C(=O)O)cc2)nn(Cc2ccc(F)cc2)c1=O` [Compound 165, 2-(4-(((1-(4-fluorobenzyl)-5-oxo-4-propyl-4,5-dihydro-1H-1,2,4-triazol-3-yl)methoxy)carbonyl)phenylthio)-2-methylpropanoic acid], for which the EC50 on Gal-4 hPPARα was 0.051 to 0.2 µM; at Gal-4 hPPARγ it was greater than 1 µM; at Gal-4 hPPARβ/δ it was greater than 1 µM.

Consider `CCCn1c(COC(=O)c2ccc(SC(C)(C)C(=O)O)cc2)nn(Cc2cccc(C(F)(F)F)c2)c1=O` [Compound 176, 2-methyl-2-(4-(((5-oxo-4-propyl-1-(3-(trifluoromethyl)benzyl)-4,5-dihydro-1H-1,2,4-triazol-3-yl)methoxy)carbonyl)phenylthio)propanoic acid], for which the results for the EC50 at Gal-4 hPPARα, at Gal-4 hPPARγ and at Gal-4 hPPARβ/δ were 0.051 to 0.2 µM, greater than 1 µM and greater than 1 µM, respectively.

`CCCn1c(COC(=O)c2ccc(SC(C)(C)C(=O)O)cc2)nn(Cc2cc(C(F)(F)F)cc(C(F)(F)F)c2)c1=O` [Compound 177, 2-(4-(((1-(3,5-bis(trifluoromethyl)benzyl)-5-oxo-4-propyl-4,5-dihydro-1H-1,2,4-triazol-3-yl)methoxy)carbonyl)phenylthio)-2-methylpropanoic acid]: the figures for the EC50 on Gal-4 hPPARα, on Gal-4 hPPARγ and at Gal-4 hPPARβ/δ were 0.001 to 0.05 µM, 0.201 to 0.999 µM and greater than 1 µM, respectively.

`CCCn1c(COC(=O)c2ccc(SC(C)(C)C(=O)O)cc2)nn(Cc2ccc(SC(F)(F)F)cc2)c1=O` [Compound 179, 2-methyl-2-(4-(((5-oxo-4-propyl-1-(4-(trifluoromethylthio)benzyl)-4,5-dihydro-1H-1,2,4-triazol-3-yl)methoxy)carbonyl)phenylthio)propanoic acid]: the EC50 was 0.051 to 0.2 µM at Gal-4 hPPARα, greater than 1 µM on Gal-4 hPPARγ and greater than 1 µM at Gal-4 hPPARβ/δ.

On to `CCn1c(COC(=O)c2ccc(SC(C)(C)C(=O)O)cc2)nn(Cc2ccc(C)cc2)c1=O` [Compound 193, 2-(4-(((4-ethyl-1-(4-methylbenzyl)-5-oxo-4,5-dihydro-1H-1,2,4-triazol-3-yl)methoxy)carbonyl)phenylthio)-2-methylpropanoic acid], for which the EC50 on Gal-4 hPPARα is 0.051 to 0.2 µM; at Gal-4 hPPARγ it was greater than 1 µM; at Gal-4 hPPARβ/δ it was greater than 1 µM.

`CCn1c(COC(=O)c2ccc(SC(C)(C)C(=O)O)cc2)nn(Cc2ccc(C(C)(C)C)cc2)c1=O` [Compound 195, 2-(4-(((1-(4-tert-butylbenzyl)-4-ethyl-5-oxo-4,5-dihydro-1H-1,2,4-triazol-3-yl)methoxy)carbonyl)phenylthio)-2-methylpropanoic acid]: the EC50 is 0.001 to 0.05 µM at Gal-4 hPPARα, greater than 1 µM on Gal-4 hPPARγ and greater than 1 µM on Gal-4 hPPARβ/δ.

`CCn1c(COC(=O)c2ccc(OC(C)(C)C(=O)O)cc2)nn(Cc2ccc(C(C)(C)C)cc2)c1=O` [Compound 196, 2-(4-(((1-(4-tert-butylbenzyl)-4-ethyl-5-oxo-4,5-dihydro-1H-1,2,4-triazol-3-yl)methoxy)carbonyl)phenoxy)-2-methylpropanoic acid]: the EC50 on Gal-4 hPPARα was 0.051 to 0.2 µM; on Gal-4 hPPARγ, greater than 1 µM; at Gal-4 hPPARβ/δ, greater than 1 µM.

In the case of `CCn1c(COC(=O)c2ccc(SC(C)(C)C(=O)O)cc2)nn(Cc2ccc(C(F)(F)F)cc2)c1=O` [Compound 197, 2-(4-(((4-ethyl-5-oxo-1-(4-(trifluoromethyl)benzyl)-4,5-dihydro-1H-1,2,4-triazol-3-yl)methoxy)carbonyl)phenylthio)-2-methylpropanoic acid], the figures for the EC50 on Gal-4 hPPARα, on Gal-4 hPPARγ and at Gal-4 hPPARβ/δ were 0.001 to 0.05 µM, greater than 1 µM and greater than 1 µM, respectively.

The values are drawn from patent US20100184815A1 (priority 2008, published 2010).
